Measured values as given in patent US12570659B2, “Bicyclic heteroaryl compounds useful as IRAK4 inhibitors” (BRISTOL-MYERS SQUIBB COMPANY, priority 2019, dated 2026).

What was measured:
[1] = biological target: IRAK4 (Homo sapiens (Human), UniProt Q9NWZ3); experiment: IRAK4 Inhibition Assay; format: biochemical; conditions: ATP 500 μM; IRAK4 0.6 nM; 60 min room temperature
Procedure, shortened: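 Phosphorylated and unphosphorylated fluorescent substrate were resolved by microfluidic electrophoresis after termination with 35 mM EDTA. The room-temperature kinase reaction lasted 60 min after IRAK4, substrates and test compound were combined; vehicle-only defined 0% and no-enzyme 100% inhibition.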

[2] = system: TLR2 agonist-stimulated IL-6 in human whole blood; experiment: IRAK4 Whole Blood Assay; format: cell-based; conditions: lipoteichoic acid 10 μg/mL, 5 hours, IL-6 levels
Experimental: Human whole blood containing the anti-coagulant ACD-A was plated in 384-well plate (25 μL/well) and incubated with compounds for 60 minutes at 37° C. in a 5% CO2 incubator. The blood was stimulated with a TLR2 agonist, 10 μg/mL final concentration of lipoteichoic acid (Invivogen, San Diego, CA) in 25 μL RPMI (Gibco) for 5 hours in a 5% CO2 incubator. At the end of the incubation, plates were centrifuged at 2300 rpm for 5 minutes. Supernatants were harvested and analyzed for IL-6 levels by Flow Cytometry beads assay (BD Biosciences, San Jose, CA).

[3] = biological target: JAK3 kinase (Homo sapiens (Human), UniProt P52333); experiment: JAK3 Homogeneous Time Resolved Fluorescence (HTRF) Assay; format: binding; conditions: for IC50: competition binding with fluorescein-labeled ATP competitive probe; for Ratio of JAK3 IC50 to IRAK4 IC50: selectivity for IRAK4 over JAK3
Sequence of JAK3 kinase (P52333 whole entry): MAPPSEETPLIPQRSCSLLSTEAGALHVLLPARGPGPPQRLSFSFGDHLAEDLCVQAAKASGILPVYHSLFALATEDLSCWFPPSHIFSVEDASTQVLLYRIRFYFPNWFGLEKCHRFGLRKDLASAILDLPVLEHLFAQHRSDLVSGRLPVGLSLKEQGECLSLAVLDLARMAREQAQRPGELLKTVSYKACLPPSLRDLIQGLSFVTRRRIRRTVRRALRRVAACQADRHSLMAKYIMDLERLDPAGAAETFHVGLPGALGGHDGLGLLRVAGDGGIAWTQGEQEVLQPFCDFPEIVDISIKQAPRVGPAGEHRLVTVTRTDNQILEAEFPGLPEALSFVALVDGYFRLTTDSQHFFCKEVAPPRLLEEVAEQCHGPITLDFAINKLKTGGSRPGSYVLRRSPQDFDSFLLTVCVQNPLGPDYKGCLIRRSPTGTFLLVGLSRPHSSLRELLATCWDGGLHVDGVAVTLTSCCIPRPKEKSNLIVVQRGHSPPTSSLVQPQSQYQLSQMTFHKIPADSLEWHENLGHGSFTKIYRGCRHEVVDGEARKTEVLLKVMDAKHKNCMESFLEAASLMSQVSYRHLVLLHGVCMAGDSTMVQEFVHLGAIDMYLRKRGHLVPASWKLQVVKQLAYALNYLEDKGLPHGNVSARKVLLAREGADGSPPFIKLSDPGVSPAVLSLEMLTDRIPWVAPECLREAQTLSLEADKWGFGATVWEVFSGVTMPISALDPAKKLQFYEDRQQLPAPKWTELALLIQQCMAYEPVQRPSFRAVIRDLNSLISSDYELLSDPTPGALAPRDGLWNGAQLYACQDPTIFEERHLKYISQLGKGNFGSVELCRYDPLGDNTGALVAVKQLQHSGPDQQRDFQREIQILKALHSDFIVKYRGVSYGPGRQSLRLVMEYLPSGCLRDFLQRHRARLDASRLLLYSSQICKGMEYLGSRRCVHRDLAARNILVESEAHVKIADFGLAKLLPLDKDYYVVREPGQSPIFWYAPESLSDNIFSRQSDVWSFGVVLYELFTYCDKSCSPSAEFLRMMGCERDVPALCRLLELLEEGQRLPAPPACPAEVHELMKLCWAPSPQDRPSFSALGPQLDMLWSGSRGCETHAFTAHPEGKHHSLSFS
Procedure, shortened: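 IC50 reflects displacement of a fluorescein-labeled ATP-site probe (at its Kd) from 1 nM tagged JAK3, detected via 0.2 nM Tb anti-His or anti-GST antibody. One-hour incubation; 495 and 520 nm emission ratios, background-subtracted, normalized to maximum signal; 11-point percent inhibition, 4-parameter logistic.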

Sequence of IRAK4 (Q9NWZ3 whole entry, species assumed): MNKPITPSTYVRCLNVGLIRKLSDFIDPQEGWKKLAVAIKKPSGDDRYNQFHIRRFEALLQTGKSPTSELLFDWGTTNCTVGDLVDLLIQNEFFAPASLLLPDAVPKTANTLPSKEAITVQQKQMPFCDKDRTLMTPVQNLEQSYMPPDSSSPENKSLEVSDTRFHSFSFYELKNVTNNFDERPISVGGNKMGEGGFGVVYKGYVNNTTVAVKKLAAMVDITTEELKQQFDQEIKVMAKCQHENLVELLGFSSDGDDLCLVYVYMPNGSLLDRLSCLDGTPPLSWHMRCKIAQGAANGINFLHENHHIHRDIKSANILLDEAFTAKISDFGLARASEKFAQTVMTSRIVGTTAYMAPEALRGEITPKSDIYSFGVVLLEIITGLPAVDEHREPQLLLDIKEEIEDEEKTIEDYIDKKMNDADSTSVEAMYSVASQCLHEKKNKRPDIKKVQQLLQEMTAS

Compound	IC50 [1] [nM]	IC50 [2] [nM]	IC50 [3] [nM]	Ratio of JAK3 IC50 to IRAK4 IC50 [3]
CC(C)Nc1c(C(=O)NCCC(C)(C)O)cnn2cc(-c3ccncc3F)cc12 [Example 77, 6-(3-fluoropyridin-4-yl)-N-(3-hydroxy-3-methylbutyl)-4-(isopropylamino)pyrrolo[1,2-b]pyridazine-3-carboxamide]	4.3	1310	–	–
Cc1ccc(-c2cc3ncc(C(=O)NC[C@@H](F)C(C)(C)O)c(NC(C)C)n3n2)cn1 [Example 131, (R)—N-(2-fluoro-3-hydroxy-3-methylbutyl)-7-(isopropylamino)-2-(6-methylpyridin-3-yl)pyrazolo[1,5-a]pyrimidine-6-carboxamide]	20	–	> 50000	>2500
CC(C)Nc1c(C(=O)NC[C@@H](F)C(C)(C)O)cnn2cc(-c3cccc(C#N)c3)nc12 [Example 98, (R)-2-(3-cyanophenyl)-N-(2-fluoro-3-hydroxy-3-methylbutyl)-8-(isopropylamino)imidazo[1,2-b]pyridazine-7-carboxamide]	240	–	> 50000	>208
CC(C)Nc1c(C(=O)NC[C@@H](F)C(C)(C)O)cnn2cc(-c3ccncc3)nc12 [Example 100, (R)—N-(2-fluoro-3-hydroxy-3-methylbutyl)-8-(isopropylamino)-2-(pyridin-4-yl)imidazo[1,2-b]pyridazine-7-carboxamide]	15	–	> 50000	>3333
CC(C)Nc1c(C(=O)NC[C@@H](F)C(C)(C)O)cnn2cccc12 [Example 96, (R)—N-(2-fluoro-3-hydroxy-3-methylbutyl)-4-(isopropylamino)pyrrolo[1,2-b]pyridazine-3-carboxamide]	740	–	> 50000	>68
CC(C)Nc1c(C(=O)NC[C@@H](F)C(C)(C)O)cnc2cc(-c3ccccc3)nn12 [Example 128, (R)—N-(2-fluoro-3-hydroxy-3-methylbutyl)-7-(isopropylamino)-2-phenylpyrazolo[1,5-a]pyrimidine-6-carboxamide]	57	–	> 10000	>175
CC(=O)N[C@H]1CC[C@H](NC(=O)c2cnn3cc(-c4ccc(C(N)=O)cc4F)cc3c2NC(C)C)CC1 [Example 76, N-((1r,4r)-4-acetamidocyclohexyl)-6-(4-carbamoyl-2-fluorophenyl)-4-(isopropylamino) pyrrolo[1,2-b]pyridazine-3-carboxamide]	92	–	> 50000	>543
CC(C)Nc1c(C(=O)NC[C@@H](F)C(C)(C)O)cnc2cc(-c3cccnc3)nn12 [Example 115, (R)—N-(2-fluoro-3-hydroxy-3-methylbutyl)-7-(isopropylamino)-2-(pyridin-3-yl) pyrazolo[1,5-a]pyrimidine-6-carboxamide]	25	–	> 10000	>400
CC(C)(O)CCNc1c(C(=O)NC[C@@H](F)C(C)(C)O)cnn2cc(-c3ccncc3)cc12 [Example 28, (R)—N-(2-fluoro-3-hydroxy-3-methylbutyl)-4-((3-hydroxy-3-methylbutyl)amino)-6-(pyridin-4-yl)pyrrolo[1,2-b]pyridazine-3-carboxamide]	40.3	–	> 50000	>1241
CC(C)Nc1c(C(=O)NC[C@@H](F)C(C)(C)O)cnn2cc(-c3cccc(CN4CCOCC4)c3)cc12 [Example 14, (R)—N-(2-fluoro-3-hydroxy-3-methylbutyl)-4-(isopropylamino)-6-(3-(morpholinomethyl)phenyl) pyrrolo[1,2-b]pyridazine-3-carboxamide]	1670	–	> 10000	>6
CC(C)Nc1c(C(=O)NC[C@@H](F)C(C)(C)O)cnn2cc(-c3cccnc3F)nc12 [Example 103, (R)—N-(2-fluoro-3-hydroxy-3-methylbutyl)-2-(2-fluoropyridin-3-yl)-8-(isopropylamino)imidazo[1,2-b]pyridazine-7-carboxamide]	45	–	> 50000	>1111
CC(C)(O)[C@H](F)CNC(=O)c1cnn2cc(-c3ccc(C#N)cn3)cc2c1NC1CCOCC1 [Example 20, (R)-6-(5-cyanopyridin-2-yl)-N-(2-fluoro-3-hydroxy-3-methylbutyl)-4-((tetrahydro-2H-pyran-4-yl)amino)pyrrolo[1,2-b] pyridazine-3-carboxamide]	150	–	> 50000	>333
CC(C)(O)[C@H](F)CNC(=O)c1cnc2cc(-c3cccnc3)nn2c1N[C@H]1CC[C@H](C(C)(C)O)CC1 [Example 159, N—((R)-2-fluoro-3-hydroxy-3-methylbutyl)-7-(((1r,4R)-4-(2-hydroxypropan-2-yl)cyclohexyl)amino)-2-(pyridin-3-yl)pyrazolo[1,5-a]pyrimidine-6-carboxamide]	53	–	> 50000	>943
CC(C)Nc1c(C(=O)NC[C@@H](F)C(C)(C)O)cnc2cc(-c3cnn(C)c3)nn12 [Example 126, (R)—N-(2-fluoro-3-hydroxy-3-methylbutyl)-7-(isopropylamino)-2-(1-methyl-1H-pyrazol-4-yl)pyrazolo[1,5-a]pyrimidine-6-carboxamide]	240	–	> 50000	>208
CC(=O)N[C@H]1CC[C@H](NC(=O)c2cnn3cc(-c4cn[nH]c4)cc3c2NC(C)C)CC1 [Example 61, N-((1r,4r)-4-acetamidocyclohexyl)-4-(isopropylamino)-6-(1H-pyrazol-4-yl)pyrrolo[1,2-b]pyridazine-3-carboxamide]	11	–	> 50000	>4545
CC(C)Nc1c(C(=O)NC[C@@H](F)C(C)(C)O)cnc2cc(-c3cccc(F)c3)nn12 [Example 140, (R)—N-(2-fluoro-3-hydroxy-3-methylbutyl)-2-(3-fluorophenyl)-7-(isopropylamino)pyrazolo[1,5-a]pyrimidine-6-carboxamide]	82	–	> 50000	>610
CC(C)Nc1c(C(=O)NC[C@@H](F)C(C)(C)O)cnn2cc(-n3ncc4cc(C#N)cnc43)cc12 [Example 39, (R)-6-(5-cyano-1H-pyrazolo[3,4-b]pyridin-1-yl)-N-(2-fluoro-3-hydroxy-3-methylbutyl)-4-(isopropylamino) pyrrolo[1,2-b]pyridazine-3-carboxamide]	21	–	> 50000	>2381
CC(C)Nc1c(C(=O)NC[C@@H](F)C(C)(C)O)cnn2cc(-c3cnoc3)cc12 [Example 44, (R)—N-(2-fluoro-3-hydroxy-3-methylbutyl)-4-(isopropylamino)-6-(isoxazol-4-yl)pyrrolo[1,2-b]pyridazine-3-carboxamide]	1500	–	> 50000	>33
CC(=O)N1CCC(NC(=O)c2cnn3cc(-c4ccncc4F)nc3c2NC(C)C)CC1 [Example 112, N-(1-acetylpiperidin-4-yl)-2-(3-fluoropyridin-4-yl)-8-(isopropylamino)imidazo[1,2-b]pyridazine-7-carboxamide]	11	–	> 10000	>909
Cc1cc(F)ncc1-c1cn2ncc(C(=O)N[C@H]3C[C@H](C(C)(C)O)C3)c(NC(C)C)c2n1 [Example 113, 2-(6-fluoro-4-methylpyridin-3-yl)-N-((1r,3r)-3-(2-hydroxypropan-2-yl)cyclobutyl)-8-(isopropylamino) imidazo[1,2-b]pyridazine-7-carboxamide]	96	–	> 50000	>521
CC(C)Nc1c(C(=O)NC[C@@H](F)C(C)(C)O)cnn2cc(C#N)cc12 [Example 35, (R)-6-cyano-N-(2-fluoro-3-hydroxy-3-methylbutyl)-4-(isopropylamino)pyrrolo[1,2-b]pyridazine-3-carboxamide]	190	–	> 50000	>263
CC(C)Nc1c(C(=O)NC[C@@H](F)C(C)(C)O)cnc2cc(-c3cncc(F)c3)nn12 [Example 130, (R)—N-(2-fluoro-3-hydroxy-3-methylbutyl)-2-(5-fluoropyridin-3-yl)-7-(isopropylamino) pyrazolo[1,5-a]pyrimidine-6-carboxamide]	110	–	> 10000	>91
CC(C)(O)[C@H](F)CNC(=O)c1cnn2cc(-c3cccnc3)cc2c1NC1CC1 [Example 32, (R)-4-(cyclopropylamino)-N-(2-fluoro-3-hydroxy-3-methylbutyl)-6-(pyridin-3-yl)pyrrolo[1,2-b]pyridazine-3-carboxamide]	11	–	> 50000	>4545
CC(C)Nc1c(C(=O)NC[C@@H](F)C(C)(C)O)cnn2cc(-c3cccnc3F)cc12 [Example 7, (R)—N-(2-fluoro-3-hydroxy-3-methylbutyl)-6-(2-fluoropyridin-3-yl)-4-(isopropylamino)pyrrolo[1,2-b]pyridazine-3-carboxamide]	6.4	–	> 10000	>1563
